“Also recorded” adds a separate entry of the source. Read-outs that look alike come from different tables or passages of the source.
Columns and labels:
Assay type in all cases: cell-based
[1] = tested on: cell-associated HIV-1 IIIB (infected SulT1 cells); assay: Cell-associated transmission assay (IIIB); settings: for EC50: Human immunodeficiency virus 1, IIIB
Description: (§1) Anti-HIV activities of the compounds were evaluated according to the previously reported procedure. In summary, the HeLa (Human cervical carcinoma: ATCC CCL-2.1) cell line was used to measure the inactivation of both the cell-free virus preparations and virus-infected cell preparations. The cells were plated in culture plates 24 h prior to each experiment. Cell-free viral preparations of HIV-1 strains IIIB (lymphocytotropic strain) and BaL (monocytotropic strain) were used for the cell-free assay. For the cell-associated assay, the SulT1 cells were infected with IIIB virus 5 days prior to the experiment. Cell-free virus and virus-infected cells were mixed with different compounds and diluted to make different concentrations. The mixture was further diluted with the buffer and added to the HeLa cells.

HIV-1 = assay: Anti-HIV activity overall (cell-free and cell-associated assays) and antiviral index; settings: for antiviral index, times better than AZT: versus AZT; for antiviral index, times better than FLT: versus FLT
From the text: Table 2, Table 3 and Table 4 illustrate the anti-HIV-1 activities against the cell-free, cell-associated, and multidrug-resistant virus and sperm inhibiting properties of the selected compounds. In summary, the anti-HIV activity of 5′-substituted derivatives of FLT and AZT (5–18) was dependent on the nature of the 5′-substituent. […] None of the other esters were active against cell-associated virus. […] The difference in the activity of fatty acyl derivatives of FLT compared to each other and FLT may be due to their differences in the rate of uptake and intracellular hydrolysis.
By design, the ester moiety in the conjugates needs to be hydrolyzed to render parent nucleosides and fatty acids to produce anti-HIV activity. The anti-HIV activities of 5′-O-ether substituted FLT and AZT (3 and 4, Scheme 2) with a stable tetradecanyl (myristyl) group were compared with hydrolyzable 5′-O-ester substituted FLT and AZT (6 and 7).
as §1

Cytotoxicity assay (MTS) = settings: human, HeLa cells (ATCC CCL-2.1)
[2] = tested on: HIV-1 strain IIIB (lymphocytotropic strain); assay: Single-round infection assay, cell-free X4 virus (lymphocytotropic strain)
Description: as §1

[3] = tested on: HIV-1 strain BaL (monocytotropic strain); assay: Single-round infection assay, cell-free R5 virus (monocytotropic strain); settings: Human immunodeficiency virus 1, BAL
Description: as §1

HIV-1 A-17 MDR (B-NNRTI) = assay: PBMC multi-round infection assay, resistant isolate A-17; settings: for IC50 / IC90: Human immunodeficiency virus 1, PBMC
Description: (§2) Based on a preliminary screening, conjugates 5 and 8 were evaluated for their ability to inhibit a drug-resistant virus in a peripheral blood mononuclear cell (PBMC) assay. In this assay, FLT, 5, and 8 were tested against B- and C-wild type and A-17 and 4755–5 multidrug-resistant (MDR) clinical isolates of HIV-1, where compounds were incubated with PBMCs for 6 h and then washed off before the addition of the virus and further culture for 7 days.
(§3) For the assessment of compounds against the wild type (WT; R5; clones = 94US3393IN [B subtype] and 98USMSC5016 [C subtype]) and drug-resistant (clones = 4755−5 and A17) HIV-1 clinical isolates, PHA-P stimulated cells from at least two normal donors were pooled, diluted in fresh media, and plated in the interior wells of a 96-well round-bottom microplate. Pooling PBMCs from more than one donor was used to minimize the variability observed between the individual donors, which results from the quantitative and qualitative differences in HIV infection and overall response to the PHA and IL-2 of primary lymphocyte populations. Each plate contained virus/cell control wells (cells + virus), experimental wells (drug + cells + virus), and compound control wells (drug + media, no cells, necessary for MTS monitoring of cytotoxicity). Test drug dilutions were prepared in microtiter tubes, and each concentration was placed in appropriate wells. Following the addition of the drug dilutions to the PBMCs, a predetermined dilution of virus stock was then placed in each test well (final MOI ≅ 0.1). Because HIV-1 is not cytopathic to PBMCs, the same assay plate can be used for both the antiviral efficacy and cytotoxicity measurements. Compounds were incubated with virus and cells in a 96-well format for 6 h. The cells were then washed by removing 75% of the medium (150 μL) and replacing it with 150 μL of fresh (no drug) medium. The plates were then centrifuged (∼200 g) for 10 min, after which 150 μL of the medium was removed, and an additional 150 μL of fresh medium was added to each well and further incubated for 6 days or until peak reverse transcriptase (RT) activity was detected. A microtiter plate-based RT reaction was utilized. Incorporated radioactivity (counts per minute, CPM) was quantified using standard liquid scintillation techniques. Compound IC50 (50%, inhibition of virus replication) was calculated using statistical software and regression analysis. A cellular uptake study was conducted for fluorescence conjugates 23 and 24 using a previously published procedure with minor modifications. All of the experiments were conducted in triplicate.

HIV-1 4755-5 MDR (B-MDR) = assay: PBMC multi-round infection assay, resistant isolate 4755-5; settings: for IC50 / IC90: Human immunodeficiency virus 1, PBMC
Description: as §2, §3

[4] = tested on: HIV-1 98USMSC5016 (C-Wild Type); assay: PBMC multi-round infection assay, clinical isolate 98USMSC5016; settings: Human immunodeficiency virus 1
Description: as §2, §3

[5] = tested on: HIV-1 94US3393IN (B-Wild Type); assay: PBMC multi-round infection assay, clinical isolate 94US3393IN; settings: Human immunodeficiency virus 1
Description: as §2, §3

[6] = tested on: human vaginal cells (VK-2/E6E7); assay: Vaginal cell cytotoxicity (MTS assay); settings: 6 h incubation; 31-1000 µg/mL
Description: A commercially used spermicidal agent (N-9) and conjugate cytotoxicity was evaluated using immortalized human vaginal cells (VK-2/E6E7). […] Observed cytotoxicity from N-9 could be correlated with the generation of higher levels of cytokines by N-9.
(§4) Human T lymphoblastoid cells (CCRF-CEM, ATCC No. CCL-119) were grown to 70% confluency in a culture medium. CCRF-CEM cells were incubated with 10 µM of the compounds and mixed with trypan blue (0.1%) to color the dead cells. The percentage of viability was calculated by using a Cellometer Auto T.4 (Nexcelom Bioscience). The cell viability against the vaginal cells (VK-2/E6E7) was conducted according to the previously reported procedure. The effect of conjugates on the sperm viability and mobility was evaluated as described previously.
Figure 2 (A) Dose–response curves of the vaginal cytotoxicity in VK-2 cells (MTS assay) for 5, 6, 8, and N-9 after 6 h incubations. (B) Proinflammatory cytokine (IL-1α) production in the VK-2 cells (ELISA) after a 6 h incubation in the presence of 5, 6, 8, and N-9.

sperm = assay: Spermicidal activity (sperm viability and motility); settings: abstract; versus N-9 positive control
Description: In this study, several fatty acyl conjugates of nucleosides (5–8, 10–12, 15, and 16) were tested for their spermicidal activities. […] Detailed data analysis is available in the Supplementary Materials (Figure S2).
as §4

[7] = read-out: (CA) EC50, Table 2, cell-associated transmission assay (IIIB)
[8] = Table 2, MTS, 50% effective concentration
[9] = Human immunodeficiency virus 1, IIIB, read-out: (X4) EC50, Table 2, single-round infection assay
[10] = read-out: (R5) EC50, Table 2, single-round infection assay
[11] = read-out: (CA) EC50, Table 3, cell-to-cell transmission assay (IIIB)
[12] = Table 3, conjugates vs physical mixtures

Structure (SMILES): Cc1cn(C2CC(F)C(COC(=O)CCCCCCCCCCCN)O2)c(=O)[nH]c1=O (stereo not drawn) [Compound 22, 3′-Fluoro-2′,3′-dideoxy-5′-O-(12-aminododecanoyl)thymidine]
- EC50 [1, 7]: > 227 µM
- anti-HIV activity (in words) (HIV-1): comparable to other fatty acyl derivatives of FLT
- EC50 (Cytotoxicity assay (MTS); [8]): > 226 µM
- EC50 [2, 9]: 3.4 µM
- EC50 [3, 10]: 1.6 µM

Structure (SMILES): CCCCCCCCCCCCCCOCC1OC(n2cc(C)c(=O)[nH]c2=O)CC1N=[N+]=[N-] (stereo not drawn) [Compound 4, 3′-Azido-2′,3′-dideoxy-5′-O-(tetradecanyl)thymidine]
- EC50 [1, 7]: > 216 µM
- anti-HIV activity (in words) (HIV-1): significantly less potent than the corresponding ester derivatives
- EC50 (Cytotoxicity assay (MTS); [8]): 205 µM
- EC50 [2, 9]: 125 µM
- EC50 [3, 10]: 27.6 µM

Structure (SMILES): Cc1cn([C@H]2C[C@H](F)[C@@H](CO)O2)c(=O)[nH]c1=O [FLT, 3′-fluoro-2′,3′-dideoxythymidine]
- activity against cell-associated virus (in words) [1]: only inconsistently and moderately active; also recorded: not active at all
- EC50 [1, 7]: > 410 µM
- EC50 [1, 11]: > 410 µM
- IC50 (HIV-1 A-17 MDR (B-NNRTI)): 0.026 µM
- IC90 (HIV-1 A-17 MDR (B-NNRTI)): 0.0872 µM
- IC50 (HIV-1 4755-5 MDR (B-MDR)): 0.107 µM
- IC90 (HIV-1 4755-5 MDR (B-MDR)): 1.06 µM
- IC50 [4]: 0.002 µM
- IC90 [4]: 0.0123 µM
- EC50 (Cytotoxicity assay (MTS); [8]): > 410 µM
- EC50 (Cytotoxicity assay (MTS); [12]): > 410 µM
- EC50 ([2]; Human immunodeficiency virus 1, IIIB, Table 2, single-round infection assay, read-out: (X4) EC50): 0.8 µM
- EC50 ([2]; Human immunodeficiency virus 1, IIIB, Table 3, viral entry inhibition assay, read-out: (X4) EC50): 0.8 µM
- EC50 ([3]; Table 2, single-round infection assay, read-out: (R5) EC50): 0.4 µM
- EC50 ([3]; Table 3, viral entry inhibition assay, read-out: (R5) EC50): 0.4 µM
- IC50 [5]: 0.002 µM
- IC90 [5]: 0.0204 µM

Structure (SMILES): CCCCCCCCCCCCCC(=O)OC[C@H]1O[C@@H](n2cc(C)c(=O)[nH]c2=O)C[C@@H]1F [Compound 6, 5′-O-(myristoyl)-3′-fluoro-2′,3′-dideoxythymidine]
- EC50 [1, 7]: 6.4 µM
- EC50 [1, 11]: 6.4 µM
- cytotoxicity to vaginal cells [6]: did not show significant cytotoxic effects
- anti-HIV activity (in words) (HIV-1): significant anti-HIV activity at noncytotoxic concentrations
- antiviral index, times better than AZT (HIV-1): > 30 times
- antiviral index, times better than FLT (HIV-1): > 4 times
- EC50 (Cytotoxicity assay (MTS); [8]): 606 µM
- EC50 (Cytotoxicity assay (MTS); [12]): 606 µM
- EC50 [2, 9]: ≤ 1 µM
- EC50 ([2]; Human immunodeficiency virus 1, IIIB, read-out: (X4) EC50, Table 3, viral entry inhibition assay): 0.7 µM
- EC50 [3, 10]: ≤ 1 µM
- EC50 ([3]; read-out: (R5) EC50, Table 3, viral entry inhibition assay): 1.1 µM
- effect on sperm viability (sperm): did not alter vaginal cell and sperm viability

Structure (SMILES): CCCCCCCCCCCCC(OC)C(=O)OC[C@H]1O[C@@H](n2cc(C)c(=O)[nH]c2=O)C[C@@H]1F (mixture of isomers) [Compound 13, (±)-3′-Fluoro-2′,3′-dideoxy-5′-O-(2-methoxyteradecanoyl)thymidine]
- EC50 [1, 7]: > 206 µM
- anti-HIV activity (in words) (HIV-1): significant anti-HIV activity at noncytotoxic concentrations
- EC50 (Cytotoxicity assay (MTS); [8]): > 206 µM
- EC50 [2, 9]: 1 µM
- EC50 [3, 10]: 0.2 µM

Structure (SMILES): CCCCCCCCCCCCCCOCC1OC(n2cc(C)c(=O)[nH]c2=O)CC1F (stereo not drawn) [Compound 3, 3′-Fluoro-2′,3′-dideoxy-5′-O-(tetradecanyl)thymidine]
- EC50 [1, 7]: > 227 µM
- anti-HIV activity (in words) (HIV-1): significantly less potent than the corresponding ester derivatives
- EC50 (Cytotoxicity assay (MTS); [8]): 179 µM
- EC50 [2, 9]: 180 µM
- EC50 [3, 10]: 176 µM

Structure (SMILES): CCSCCCCCCCCCCCC(=O)OC[C@H]1O[C@@H](n2cc(C)c(=O)[nH]c2=O)C[C@@H]1F [Compound 8, 3′-fluoro-2′,3′-dideoxy-5′-O-(12-thioethyldodecanoyl)thymidine]
- EC50 [1, 7]: 2.3 µM
- cytotoxicity to vaginal cells [6]: did not show significant cytotoxic effects
- IC50 (HIV-1 A-17 MDR (B-NNRTI)): 0.0136 µM
- IC90 (HIV-1 A-17 MDR (B-NNRTI)): 0.0457 µM
- fold more potent than FLT against A-17 (HIV-1 A-17 MDR (B-NNRTI); versus FLT IC50): twice as active
- IC50 (HIV-1 4755-5 MDR (B-MDR)): 0.112 µM
- IC90 (HIV-1 4755-5 MDR (B-MDR)): 0.662 µM
- fold more potent than FLT against 4755-5 (HIV-1 4755-5 MDR (B-MDR); versus FLT IC50): equally active
- anti-HIV activity (in words) (HIV-1): significant anti-HIV activity at noncytotoxic concentrations
- antiviral index, times better than AZT (HIV-1): > 30 times
- antiviral index, times better than FLT (HIV-1): > 4 times
- IC50 [4]: 0.001 µM
- IC90 [4]: 0.0082 µM
- EC50 (Cytotoxicity assay (MTS); [8]): > 2000 µM
- EC50 [2, 9]: ≤ 1 µM
- EC50 ([2]; read-out: (X4) EC50, Table 2, single-round infection assay): 1 µM
- effect on sperm viability (sperm): did not alter vaginal cell and sperm viability
- IC50 [5]: 0.0006 µM
- IC90 [5]: 0.0103 µM
